Test systems include Escherichia coli; Acinetobacter sp.; Enterococcus gallinarum; Staphylococcus aureus; Enterococcus faecium; Escherichia coli P4; Serratia marcescens; Klebsiella aerogenes; Enterobacter cloacae; Klebsiella pneumoniae; Pseudomonas aeruginosa.
Holding throughout (assay): ≥ marks a high value that may be exact or a test limit, other limits are often not marked, values filed in µg/mL are converted to µM
For experiment [1], the system named is Pseudomonas aeruginosa ATCC 25619.
For experiment [2], the system named is Pseudomonas aeruginosa ATCC 10145.
Experiment [3] relates to Pseudomonas aeruginosa 16011.
For experiment [4], the system named is Acinetobacter baumannii ATCC 19606.
Experiment [5] concerns Staphylococcus aureus ATCC 6538.
In experiment [6] the test system is Pseudomonas aeruginosa 1109.
Experiment [7] concerns Acinetobacter baumannii ATCC BAA-1605.
The subject of experiment [8] is Acinetobacter baumannii ATCC BAA-747.
Experiment [9] has as its system Pseudomonas aeruginosa ATCC BAA-1744.
The subject of experiment [10] is Staphylococcus aureus RN4220.
Experiment [11] concerns Staphylococcus aureus NRS 1.
Experiment [12] has as its system Staphylococcus epidermidis NRS 101.
The test system of experiment [13] is Staphylococcus aureus VRSA1.
Experiment [14] deals with Staphylococcus aureus USA 300.
Experiment [15] has as its system Acinetobacter baumannii NR-9667.
For experiment [16], the system named is Pseudomonas aeruginosa 1125.
For experiment [17], the system named is Pseudomonas aeruginosa ATCC 15442.
The test system of experiment [18] is Staphylococcus aureus USA 100.
Experiment [19] concerns Acinetobacter baumannii NR-13375.
Experiment [20] concerns Pseudomonas aeruginosa ATCC 35032.
Experiment [21] has as its system Pseudomonas aeruginosa ATCC 9027.
The test system of experiment [22] is Pseudomonas aeruginosa 1017.
In experiment [23] the test system is Pseudomonas aeruginosa ATCC 9721.
In experiment [24] the test system is Pseudomonas aeruginosa ATCC 27853.
For experiment [25], the system named is Staphylococcus aureus NRS 19.
Experiment [26] concerns Staphylococcus aureus ATCC 43300.
Experiment [27] has as its system Staphylococcus aureus ATCC BAA-44.
Experiment [28] relates to Staphylococcus aureus NRS 72.
Experiment [29] concerns Staphylococcus aureus USA 200.
Experiment [30] deals with Pseudomonas aeruginosa ATCC 25668.
The subject of experiment [31] is Bacillus subtilis ATCC 6633.
The subject of experiment [32] is Staphylococcus aureus ATCC 9144.
Experiment [33] has as its system Enterococcus faecalis ATCC 29212.
Experiment [34] has as its system Bacillus subtilis KCTC 3038.
The subject of experiment [35] is Escherichia coli ATCC 27325.
The subject of experiment [36] is Salmonella typhimurium KCTC 2370.
Experiment [37] deals with Enterococcus casseliflavus.
In experiment [38] the test system is Saccharomyces cerevisiae ATCC 44774.
Experiment [39] relates to Staphylococcus aureus ATCC 29213.
Experiment [40] has as its system Escherichia coli ATCC 25922.

In brackets after ≈: the same amount, converted by molar mass. Several values for one entry are separate records, joined by “and”; a condition that tells them apart may be missing. Equal entries are not always repeated. Bounds are passed on as bounds.

Turning to `CC[C@H](C)[C@H](NC(=O)[C@H](CCCN=C(N)N)NC(=O)[C@H](CCCN=C(N)N)NC(=O)[C@H](CC(C)C)NC(=O)[C@H](Cc1c[nH]c2ccccc12)NC(=O)[C@H](C)NC(=O)[C@H](CCCCN)NC(=O)[C@@H](NC(=O)[C@H](CCCN=C(N)N)NC(=O)[C@H](CCCN=C(N)N)NC(=O)[C@H](CC(C)C)NC(=O)[C@@H](N)Cc1c[nH]c2ccccc12)[C@@H](C)CC)C(=O)N[C@@H](CCCCN)C(=O)N[C@@H](C)C(=O)O` [WLRRIKAWLRRIKA], the minimal inhibitory concentration (MIC) in [1] turned out to be 8 µM (≈ 14.9 µg/mL); in experiment [2], 8 µM (≈ 14.9 µg/mL); in [3], 16 µM (≈ 29.9 µg/mL); in experiment [4], 2 µM (≈ 3.73 µg/mL); in [5] it was 2 µM (≈ 3.73 µg/mL); in experiment [6] it was 4 µM (≈ 7.47 µg/mL). Further, the MIC was found to be 2 µM (≈ 3.73 µg/mL) in experiment [7]; 2 µM (≈ 3.73 µg/mL) in experiment [8]; 8 µM (≈ 14.9 µg/mL) in [9]; 4 µM (≈ 7.47 µg/mL) in experiment [10]; 2 µM (≈ 3.73 µg/mL) in [11]; 2 µM (≈ 3.73 µg/mL) in experiment [12]. The MIC in experiment [13] amounted to 4 µM (≈ 7.47 µg/mL); in experiment [14] it was 4 µM (≈ 7.47 µg/mL); in [15] it was 4 µM (≈ 7.47 µg/mL); in experiment [16], 8 µM (≈ 14.9 µg/mL); in experiment [17], 8 µM (≈ 14.9 µg/mL); in experiment [18], 2 µM (≈ 3.73 µg/mL). Further, the minimum inhibitory concentration (MIC) is 2 µM (≈ 3.73 µg/mL) in [19]; 8 µM (≈ 14.9 µg/mL) in experiment [20]; 4 µM (≈ 7.47 µg/mL) in experiment [21]; ≥ 32 µM in [22]; 8 µM (≈ 14.9 µg/mL) in experiment [23]; 8 µM (≈ 14.9 µg/mL) in [24]. The MIC in [25], in experiment [26], in [27], in experiment [28] and in experiment [29] was 4 µM (≈ 7.47 µg/mL) throughout.
`CC[C@H](C)[C@H](N)C(=O)N[C@@H](CCCCN)C(=O)N1CCC[C@H]1C(=O)N[C@@H](C)C(=O)NCC(=O)N[C@@H](CCCCN)C(=O)N[C@@H](CC(C)C)C(=O)N[C@@H](Cc1ccccc1)C(=O)N[C@@H](CCCCN)C(=O)N[C@@H](CC(C)C)C(=O)N[C@@H](Cc1ccccc1)C(=O)N[C@@H](CCCCN)C(N)=O` [IKPAGKLFKLFK]: the MIC against Escherichia coli was 368 µM (≈ 512 µg/mL); in experiment [30], ≥ 368 µM; in experiment [31], ≥ 368 µM; with Acinetobacter sp., ≥ 46.1 µM; in experiment [32], ≥ 368 µM.
As to `CC(C)[C@H](NC(=O)[C@H](CCCCN)NC(=O)[C@H](CCC(N)=O)NC(=O)[C@H](CCCCN)NC(=O)[C@@H](NC(=O)[C@@H](NC(=O)[C@H](CCC(N)=O)NC(=O)[C@@H](NC(=O)[C@@H](NC(=O)[C@@H]1CCCN1C(=O)[C@H](CCCN=C(N)N)NC(=O)[C@@H](NC(=O)[C@@H](NC(=O)[C@@H](N)CCCN=C(N)N)C(C)C)C(C)C)C(C)C)C(C)C)C(C)C)C(C)C)C(=O)N[C@@H](CCCN=C(N)N)C(=O)O` [RVVRPVVQVVKQKVR], the MIC in the experiment with Enterococcus gallinarum is ≥ 35.8 µM; in experiment [33] it was 4.47 µM (≈ 8 µg/mL); in experiment [34] it was 8.94 µM (≈ 16 µg/mL); against Staphylococcus aureus it was > 35.8 µM; in experiment [35], 17.9 µM and ≥ 35.8 µM; in experiment [36] it was ≥ 35.8 µM. For the same compound, the MIC was 2.23 µM (≈ 4 µg/mL) against Enterococcus faecium, 1.12 µM (≈ 2 µg/mL) in [37] and 1.12 µM (≈ 2 µg/mL) in experiment [38].
As to `CC[C@H](C)[C@H](NC(=O)[C@H](Cc1cnc[nH]1)NC(=O)[C@@H](NC(=O)[C@H](CCCN=C(N)N)NC(=O)[C@@H](N)C(C)C)[C@@H](C)CC)C(=O)N[C@@H](CO)C(=O)NCC(=O)N[C@@H](CO)C(=O)N[C@@H](CO)C(=O)N[C@@H](CC(C)C)C(=O)NCC(=O)N[C@@H](Cc1c[nH]c2ccccc12)C(=O)N[C@@H](CC(C)C)C(=O)N[C@H](C(=O)N[C@@H](CCC(N)=O)C(=O)N[C@@H](CC(C)C)C(=O)N[C@@H](Cc1ccccc1)C(=O)N[C@@H](CCCN=C(N)N)C(=O)N[C@@H](CCCCN)C(=O)N[C@@H](CCCN=C(N)N)C(=O)N[C@H](C(=O)N[C@@H](CCC(=O)O)C(=O)N[C@@H](CO)C(=O)N[C@@H](CC(C)C)C(=O)N[C@@H](CC(C)C)C(=O)N[C@@H](CCC(N)=O)C(=O)N[C@@H](CCCCN)C(=O)N[C@@H](CO)C(=O)O)[C@@H](C)CC)[C@@H](C)CC` [VRIHISGSSLGWLIQLFRKRIESLLQKS], the minimal inhibitory concentration (MIC) was ≥ 55.4 µM against Escherichia coli P4; ≥ 157 µM in the experiment on Serratia marcescens; 55.4 µM (≈ 181 µg/mL) in experiment [39]; 55.4 µM (≈ 181 µg/mL) in experiment [40]; 78.4 µM (≈ 256 µg/mL) in the experiment with Escherichia coli; ≥ 78.4 µM against Klebsiella aerogenes. Moreover, the figures for the minimum inhibitory concentration (MIC) in the experiment on Enterobacter cloacae, in the experiment on Klebsiella pneumoniae and with Pseudomonas aeruginosa were ≥ 78.4 µM, > 78.4 µM and > 78.4 µM, respectively.

The values above are taken from DBAASP.
